# According to article PMC12713023, “CDH1 Orchestrates Anabolic Events to Promote Cell Cycle Initiation” (Advanced Science, 2025):
# Experiments:
# CPT2 = biological target: T1, CPT2 (Homo sapiens, UniProt P23786); test: CoA consumption, DTNB at […] nm; format: biochemical; conditions: 2 mM CoA, 2 mM palmitoyl-L-carnitine, pH 7.5, 37 °C
# T1 sequence (P23786 26-658): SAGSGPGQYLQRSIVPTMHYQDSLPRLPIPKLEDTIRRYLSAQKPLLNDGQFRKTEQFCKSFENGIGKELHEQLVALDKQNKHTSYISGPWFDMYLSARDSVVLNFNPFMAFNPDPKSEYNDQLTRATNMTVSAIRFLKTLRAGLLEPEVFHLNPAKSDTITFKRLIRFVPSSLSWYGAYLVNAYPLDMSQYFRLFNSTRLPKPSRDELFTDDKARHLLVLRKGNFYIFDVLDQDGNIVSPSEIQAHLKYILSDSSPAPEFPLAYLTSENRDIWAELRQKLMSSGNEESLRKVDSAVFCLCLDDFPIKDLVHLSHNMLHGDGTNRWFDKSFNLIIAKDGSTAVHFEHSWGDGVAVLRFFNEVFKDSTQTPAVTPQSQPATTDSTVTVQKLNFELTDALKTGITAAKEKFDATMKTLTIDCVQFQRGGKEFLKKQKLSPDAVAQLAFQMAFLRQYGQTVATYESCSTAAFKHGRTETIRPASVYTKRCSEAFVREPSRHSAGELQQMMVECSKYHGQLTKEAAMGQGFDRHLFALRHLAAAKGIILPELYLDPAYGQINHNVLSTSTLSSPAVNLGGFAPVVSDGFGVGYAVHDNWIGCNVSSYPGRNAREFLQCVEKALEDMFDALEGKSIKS
# [1] = biological target: T2, TKTL1 (transketolase-like-1) (Homo sapiens, UniProt P51854); test: biolayer interferometry, His-tagged protein on anti-His biosensors, […] fit; format: binding; conditions: PBST, 30 °C, 0.82-200 µM ligand; KD = kd/ka
# T2 construct: CDS in pET-22b(+), His-tagged, E. coli BL21(DE3), Ni-NTA; tag kept (captured on anti-His biosensors)
# T2 sequence (P51854 1-596): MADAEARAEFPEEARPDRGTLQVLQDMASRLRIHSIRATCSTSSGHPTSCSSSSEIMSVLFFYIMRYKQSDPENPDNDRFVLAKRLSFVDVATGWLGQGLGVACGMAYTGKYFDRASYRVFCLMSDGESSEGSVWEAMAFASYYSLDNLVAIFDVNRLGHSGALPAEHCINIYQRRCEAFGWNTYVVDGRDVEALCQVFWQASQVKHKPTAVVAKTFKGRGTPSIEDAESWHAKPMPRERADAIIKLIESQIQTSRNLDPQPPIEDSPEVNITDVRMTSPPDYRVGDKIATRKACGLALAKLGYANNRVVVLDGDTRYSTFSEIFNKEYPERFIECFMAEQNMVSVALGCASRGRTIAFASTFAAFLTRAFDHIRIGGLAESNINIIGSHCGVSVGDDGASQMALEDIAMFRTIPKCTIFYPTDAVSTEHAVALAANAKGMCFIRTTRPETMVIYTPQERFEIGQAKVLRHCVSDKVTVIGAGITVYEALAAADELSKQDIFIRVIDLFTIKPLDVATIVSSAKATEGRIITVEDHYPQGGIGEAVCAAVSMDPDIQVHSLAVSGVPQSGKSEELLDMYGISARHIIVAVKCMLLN
Structure (SMILES),relative specific activity (CPT2),Kd [1] [µM]
CC(C)(COP(=O)(O)OP(=O)(O)OC[C@H]1O[C@@H](n2cnc3c(N)ncnc32)[C@H](O)[C@@H]1OP(=O)(O)O)[C@@H](O)C(=O)NCCC(=O)NCCS [CoA],CPT2 activity was assayed by measuring the decrease in CoA levels,
O=S(=O)(O)OC[C@H]1OC(O)[C@H](O)[C@@H]1O (some centres unmarked) [R5S],,8.58
